Test results published in patent US4042693A, “Derivatives of 1,2,4-thiadiazine” (A. Christiaens Societe Anonyme, priority 1975, dated 1977).

Test system: paw of rats
Assay: Anti-inflammatory test: carrageenan-induced rat paw swelling (plethysmography), oral
Format: in vivo
Details: oral route one hour before carrageenan injection, swelling determined 4 hours after injection, versus control group, dose not given
Experimental: The compounds to be tested are given as freshly prepared solutions or suspensions by oral route one hour before injecting the paw of rats with carrageenan which is a known inflammatory agent.
The inflammatory agent (carrageenan) either in solution or suspension is then injected into the plantar tissue of the right hind paw of each rat, the left paw remaining untreated and serving as control. Each animal receives, for example, 0.05 ml of an aqueous solution containing 1% by weight of carrageenan and 0.9% of sodium chloride.
4 Hours after the injection of the inflammatory agent, the importance of swelling is determined by plethysmography and is expressed as a percent of the volume of the control paw.
The anti-inflammatory effect expressed as a percentage of inhibition is obtained by comparison between rats treated with the anti-inflammatory compound and a control group of rats.

Structure (SMILES)	% inhibition of acute oedema
O=S1(=O)N=C(c2ccccc2)N(c2cccc(C(F)(F)F)c2)c2ccncc21 [Example 1, 3-phenyl-4-metatrifluoromethylphenyl-4H-pyridino-[4,3-e]-1,2,4-thiadiazine-1,1-dioxide]	53.6%
O=S1(=O)N=C(c2ccc(Cl)cc2)N(c2cc(Cl)cc(Cl)c2)c2ccncc21 [Example 2, 3-parachlorophenyl-4-(3',5'-dichlorophenyl)-4H-pyridino-[4,3-e]-1,2,4-thiadiazine-1,1-dioxide]	57%
CCc1cccc(N2C(c3ccc(Cl)cc3)=NS(=O)(=O)c3cnccc32)c1 [Example 3, 3-parachlorophenyl-4-(3'-ethylphenyl)-4H-pyrido-[4,3-e]-1,2,4-thiadiazine-1,1-dioxide]	60%
COc1cccc(N2C(c3ccccc3Cl)=NS(=O)(=O)c3cnccc32)c1 [Example 4, 3-orthochlorophenyl-4-(3-methoxyphenyl)-4H-pyrido-[4,3-e]-1,2,4-thiadiazine-1,1-dioxide]	40%
